One may read the IC50 as the concentration that gives 50% inhibition. The Ki is the equilibrium dissociation constant of an inhibitor or competing ligand from its target.

Our source for the IC50 and Ki values is article PMC5830883, “A Functional Signature Ontology (FUSION) screen detects an AMPK inhibitor with selective toxicity toward human colon tumor cells” (Scientific Reports, 2018).

Test [1] addresses T1, AMPKα2 (recombinant AMPKα2β1γ1) (Homo sapiens, UniProt P54619+P54646+Q9Y478).
T1 construct: gene PRKAA2; recombinant AMPKα2β1γ1 heterotrimer (#P48-10H, SignalChem); with AMPKβ1, AMPKγ1
Description: radiometric in vitro kinase assay with SAMS peptide and […]-ATP. Type of test: biochemical.

In test [2] the target is T2, AMPKα1 (recombinant AMPKα1β1γ1) (Homo sapiens, UniProt Q13131).
T2 construct: gene PRKAA1; recombinant AMPKα1β1γ1 heterotrimer (#P47-10H, SignalChem); with AMPKβ1, AMPKγ1
T2 sequence (Q13131 whole entry): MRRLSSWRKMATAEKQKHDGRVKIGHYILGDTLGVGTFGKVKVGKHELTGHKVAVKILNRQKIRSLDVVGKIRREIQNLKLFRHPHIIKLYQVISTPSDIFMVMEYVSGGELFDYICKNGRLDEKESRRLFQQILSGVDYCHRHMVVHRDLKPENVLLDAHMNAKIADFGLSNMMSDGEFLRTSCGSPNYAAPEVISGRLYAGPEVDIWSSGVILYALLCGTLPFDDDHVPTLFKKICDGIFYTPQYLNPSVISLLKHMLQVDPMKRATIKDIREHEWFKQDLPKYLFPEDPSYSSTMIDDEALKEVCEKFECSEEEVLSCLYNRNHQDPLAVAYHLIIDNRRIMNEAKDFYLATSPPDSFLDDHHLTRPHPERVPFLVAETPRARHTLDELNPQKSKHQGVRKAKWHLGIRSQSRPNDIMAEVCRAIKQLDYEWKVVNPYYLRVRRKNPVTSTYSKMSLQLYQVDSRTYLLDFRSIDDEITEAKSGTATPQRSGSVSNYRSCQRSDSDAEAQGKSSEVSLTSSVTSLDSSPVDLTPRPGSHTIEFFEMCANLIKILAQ
T2 sequence (Q9Y478 2-270 partner): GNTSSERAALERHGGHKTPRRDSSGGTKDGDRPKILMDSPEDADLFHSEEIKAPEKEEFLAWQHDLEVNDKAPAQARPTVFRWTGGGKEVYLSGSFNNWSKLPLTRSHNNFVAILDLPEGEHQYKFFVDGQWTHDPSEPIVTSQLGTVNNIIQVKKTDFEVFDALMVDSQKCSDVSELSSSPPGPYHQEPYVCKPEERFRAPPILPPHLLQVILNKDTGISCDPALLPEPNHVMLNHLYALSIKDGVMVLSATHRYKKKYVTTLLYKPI
T2 sequence (P54619 whole entry partner): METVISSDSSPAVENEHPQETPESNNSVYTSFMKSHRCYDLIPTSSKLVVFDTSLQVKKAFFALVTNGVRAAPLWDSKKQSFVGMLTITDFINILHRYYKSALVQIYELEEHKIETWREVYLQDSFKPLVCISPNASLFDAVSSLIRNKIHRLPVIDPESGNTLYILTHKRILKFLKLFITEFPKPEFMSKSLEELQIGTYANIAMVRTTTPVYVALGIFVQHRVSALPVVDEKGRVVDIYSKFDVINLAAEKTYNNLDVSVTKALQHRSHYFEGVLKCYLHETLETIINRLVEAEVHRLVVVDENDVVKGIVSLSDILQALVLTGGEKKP
Description: radiometric in vitro kinase assay with SAMS peptide and […]-ATP; Lineweaver-Burk; IC50 […]. It counts as biochemical.

T1 sequence (P54646 whole entry): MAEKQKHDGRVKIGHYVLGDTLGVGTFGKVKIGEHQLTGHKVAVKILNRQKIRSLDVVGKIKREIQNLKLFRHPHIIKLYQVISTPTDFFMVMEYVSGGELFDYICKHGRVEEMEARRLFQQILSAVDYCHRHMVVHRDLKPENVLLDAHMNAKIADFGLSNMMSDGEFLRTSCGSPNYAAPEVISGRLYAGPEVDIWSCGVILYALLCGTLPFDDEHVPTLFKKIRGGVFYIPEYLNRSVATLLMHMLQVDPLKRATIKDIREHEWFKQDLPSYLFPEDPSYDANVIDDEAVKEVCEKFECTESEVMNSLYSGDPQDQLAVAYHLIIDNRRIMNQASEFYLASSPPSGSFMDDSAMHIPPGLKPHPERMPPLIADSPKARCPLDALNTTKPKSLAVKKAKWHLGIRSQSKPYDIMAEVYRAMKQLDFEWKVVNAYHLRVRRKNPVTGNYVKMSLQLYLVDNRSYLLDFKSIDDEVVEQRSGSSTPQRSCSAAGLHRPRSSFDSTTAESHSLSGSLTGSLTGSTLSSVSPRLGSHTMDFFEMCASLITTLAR
T1 sequence (Q9Y478 2-270 partner): as the sequence (Q9Y478 2-270 partner) above
T1 sequence (P54619 whole entry partner): as the sequence (P54619 whole entry partner) above

As to `CN[C@@H]1C(O)[C@H]2O[C@@](C)([C@@H]1OC)n1c3ccccc3c3c4c(c5c6ccccc6n2c5c31)C(=O)NC4` (some centres unmarked) [5-OH-S, 5′-hydroxy-staurosporine], the half-inhibitory concentration (IC50) in test [1] is 583 nM. Moreover, the Ki in test [2] was 347 nM.
